We go through 14 compounds from US20080275078A1, “Pyrazolo[3,4-B] Pyridine Compounds and Their Use as Pde4 Inhibitors” (Glaxo Group Limited, priority 2004, published 2008).

Assay [1] concerns the target T1, PDE4B (human recombinant) (Homo sapiens, UniProt Q07343).
T1 construct: made in house; host or cells: Saccharomyces cerevisiae strain GL62 (PDE-deficient yeast), 100,000xg supernatant of cell lysate, as described in WO 94/20079
Description: Inhibition of PDE4B activity (SPA or FP assay). In kind it is biochemical. To be noted: SPA or FP assay or similar; n=1 or average of 2 or more readings; range given for the listed group of Examples; read-out: PDE4B pIC50 (±about 0.5) (converted). The source says:
Human recombinant PDE4B, in particular the 2B splice variant thereof (HSPDE4B2B), is disclosed in WO 94/20079 and also M. M. McLaughlin et al., “A low Km, rolipram-sensitive, cAMP-specific phosphodiesterase from human brain: cloning and expression of cDNA, biochemical characterisation of recombinant protein, and tissue distribution of mRNA”, J. Biol. Chem., 1993, 268, 6470-6476. For example, in Example 1 of WO 94/20079, human recombinant PDE4B is described as being expressed in the PDE-deficient yeast Saccharomyces cerevisiae strain GL62, e.g. after induction by addition of 150 uM CuSO4, and 100,000×g supernatant fractions of yeast cell lysates are described for use in the harvesting of PDE4B enzyme.
The ability of compounds to inhibit catalytic activity at PDE4B or 4D (human recombinant), PDE3 (from bovine aorta), PDE5 (human recombinant) or PDE6 (from bovine retina) can optionally be determined by Scintillation Proximity Assay (SPA) in a 96-well format. • Test compounds (as a solution in DMSO, preferably about 2 microlitre (ul) volume of DMSO solution) are preincubated at ambient temperature (room temperature, e.g. 19-23° C.) in Wallac Isoplates (code 1450-514) with PDE enzyme in 50 mM Tris-HCl buffer pH 7.5, 8.3 mM MgCl2, 1.7 mM EGTA, 0.05% (w/v) bovine serum albumin for 10-30 minutes (usually 30 minutes). The enzyme concentration is adjusted so that no more than 20% hydrolysis of the substrate defined below occurs in control wells without compound, during the incubation. For the PDE3, PDE4B and PDE4D assays, [5′,8-^3H]Adenosine 3′,5′-cyclic phosphate (Amersham Pharmacia Biotech, code TRK.559; or Amersham Biosciences UK Ltd, Pollards Wood, Chalfont St Giles, Buckinghamshire HP8 4SP, UK) is added to give 0.05 uCi per well and about 10 nM final concentration. For the PDE5 and PDE6 assays, [8-^3H]Guanosine 3′,5′-cyclic phosphate (Amersham Pharmacia Biotech, code TRK.392) is added to give 0.05 uCi per well and about 36 nM final concentration. Plates containing assay mixture, preferably approx. 100 ul volume of assay mixture, are mixed on an orbital shaker for 5 minutes and incubated at ambient temperature for 1 hour. Phosphodiesterase SPA beads (Amersham Pharmacia Biotech, code RPNQ 0150) are added (about 1 mg per well) to terminate the assay. Plates are sealed and shaken and allowed to stand at ambient temperature for 35 minutes to 1 hour (preferably 35 minutes) to allow the beads to settle. Bound radioactive product is measured using a WALLAC TRILUX 1450 Microbeta scintillation counter. For inhibition curves, 10 concentrations (e.g. 1.5 nM-30 uM) of each compound are assayed. Curves are analysed using ActivityBase and XLfit (ID Business Solutions Limited, 2 Ocean Court, Surrey Research Park, Guildford, Surrey GU2 7QB, United Kingdom) Results are expressed as pIC50 values.
The ability of compounds to inhibit catalytic activity at PDE4B (human recombinant) or PDE4D (human recombinant) can optionally be determined by IMAP Fluorescence Polarisation (FP) assay (IMAP Explorer kit, available from Molecular Devices Corporation, Sunnydale, Calif., USA; Molecular Devices code: R8062) in a 384-well format.
The IMAP FP assay is able to measure PDE activity in an homogenous, non-radioactive assay format. The FP assay uses the ability of immobilised trivalent metal cations, coated onto nanoparticles (tiny beads), to bind the phosphate group of Fl-AMP that is produced on the hydrolysis of fluorescein-labelled (Fl) cyclic adenosine mono-phosphate (Fl-cAMP) to the non-cyclic Fl-AMP form. […] Binding of Fl-AMP product to the beads (coated with the immobilised trivalent cations) slows the rotation of the bound Fl-AMP and leads to an increase in the fluorescence polarisation ratio of parallel to perpendicular light. Inhibition of the PDE reduces/inhibits this signal increase. […]

Assay [2] relates to dinitrofluorobenzene (DNFB)-induced delayed type hypersensitivity (DTH) response in pigs. Description: In Vivo Assay A: pig model of atopic dermatitis, skin topical administration. To be noted: 1% (w/w) cream formulation; p<0.05 by ANOVA. The source says: The pig DTH (delayed type hypersensitivity) model of contact hypersensitivity utilizes the Th2-mediated inflammatory response in pig skin to mimic the pathology of atopic dermatitis in humans. The model measures the potential anti-inflammatory effect of compounds, topically-applied to the skin, on the acute DTH (delayed type hypersensitivity) response in castrated male Yorkshire pigs.
In general in the assay, pigs (domestic Yorkshire pigs, 15-18 kg at time of sensitization, castrated males) are first sensitized by topical application of ca. 10% (w/v) dinitrofluorobenzene (DNFB) dissolved in DMSO:acetone:olive oil (ca. 1:5:3) (ca. 40 mg DNFB, 400 microlitre solution total) to the ears (outer) and groin (inner). The pigs are then challenged 12 days later with ca. 0.6% (w/v) DNFB applied to randomized sites on the shaved back of the pigs (ca. 90 micrograms/site; sites are identified and numbered by grid made with marking pen).
On the day of challenge, the treatments are performed at the challenge sites at about 2 hours prior to and about 6 hours after challenge (for DMSO/acetone solutions/suspensions containing the PDE4 inhibitor, to maximize exposure to drug), or at about 30 minutes after and about 6 hours after challenge (for topical ointments or creams containing the PDE4 inhibitor, representing a more clinically relevant treatment protocol).
One day (about 24 hrs) after challenge, and optionally again at ca. 48 hrs post challenge, test sites are visually evaluated for intensity and extent of erythema by measuring the diameter of the reaction at its widest point and assigning scores of 0 to 4 for each of erythema intensity and erythema extent. Induration (a measure of swelling) is also scored 0 to 4. Scores for erythema intensity, erythema extent and induration are assigned according to the following criteria: Intensity of Erythema: 0=normal, 1=minimal, barely visible, 2=mild, 3=moderate, 4=severe. Extent of Erythema (not raised): 0=no edema, 1=macules of pin head size, 2=lentil sized macules, 3=confluent macules, 4=diffuse over entire site. Induration (palpable): 0=normal, 1=nodules of pin head size, 2=doughy lentil sized nodules, 3=confluent firm nodules, 4=diffuse hard lesion. The summed visual score at ca. 24 hours includes the individual scores for erythema intensity, erythema extent, and induration; so the maximal summed score for each site would be 12. High summed scores can generally indicate a high inflammatory response. Visual scores are subject to some inaccuracy/error.
Differences in the summed score between adjacent control (placebo) and treatment sites on the grids are calculated. This difference value is then used to determine the percent inhibition compared to the summed score for the control (placebo) sites. The more negative the difference value, the greater the calculated inhibition. Percent inhibition of (percent inhibition compared to) the mean summed score can be calculated.
About 24 hours after challenge, treatment sites can optionally also be visually evaluated for lesion area.
The anti-inflammatory effect of the compound 4-{[1-(aminocarbonyl)-4-piperidinyl]amino}-N-[(3,4-dimethylphenyl)methyl]-1-ethyl-1H-pyrazolo[3,4-b]pyridine-5-carboxamide (“Example 2 or 2A compound”), applied topically to the skin, on the acute DTH response in castrated male Yorkshire pigs is compared to that of another PDE4 inhibitor cipamfylline (BRL-61063) and the topical immunomodulator pimecrolimus.
In the above assay, the Example 2 or 2A compound is topically administered: either (A) at ca. 2.5% (w/v) concentration in a solution of ca. 10% DMSO/90% acetone (ca. 50 microlitres or ca. 1.5 mg/site) at about 2 hours prior to and about 6 hours after the DNFB challenge; or (B) at ca. 0.5% (w/w) concentration in an ointment containing propylene glycol (PG)* (ca. 25 mg of formulation/site) at about 30 minutes after and about 6 hours after the DNFB challenge. […]

T1 sequence (Q07343 1-564 isoform Q07343-2): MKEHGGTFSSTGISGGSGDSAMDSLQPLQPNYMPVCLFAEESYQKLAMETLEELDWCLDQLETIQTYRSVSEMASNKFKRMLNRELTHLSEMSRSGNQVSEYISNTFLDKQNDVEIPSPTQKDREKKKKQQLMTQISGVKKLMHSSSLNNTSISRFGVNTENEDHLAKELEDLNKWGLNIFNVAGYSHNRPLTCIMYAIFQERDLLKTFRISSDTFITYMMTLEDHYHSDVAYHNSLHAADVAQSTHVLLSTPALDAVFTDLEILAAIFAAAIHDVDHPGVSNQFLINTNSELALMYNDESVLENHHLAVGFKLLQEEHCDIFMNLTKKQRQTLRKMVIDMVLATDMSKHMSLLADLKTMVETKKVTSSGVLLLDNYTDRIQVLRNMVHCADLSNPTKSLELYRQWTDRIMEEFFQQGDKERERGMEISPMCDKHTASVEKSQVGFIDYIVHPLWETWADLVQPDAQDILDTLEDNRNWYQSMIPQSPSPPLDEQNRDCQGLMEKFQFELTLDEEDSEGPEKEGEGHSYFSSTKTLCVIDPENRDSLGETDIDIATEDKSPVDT

On to `CCn1ncc2c(NC3CCN(C(N)=O)CC3)c(C(=O)NCc3ccc(C)cc3C)cnc21` [Example 1, 4-{[1-(aminocarbonyl)-4-piperidinyl]amino}-N-[(2,4-dimethylphenyl)methyl]-1-ethyl-1H-pyrazolo[3,4-b]pyridine-5-carboxamide], for which the IC50 in assay [1] was 0.631 to 0.794 nM. Consider `CCn1ncc2c(NC3CCN(C(N)=O)CC3)c(C(=O)NCc3ccc(OC)cc3)cnc21` [Example 3, 4-{[1-(aminocarbonyl)-4-piperidinyl]amino}-1-ethyl-N-{[4-(methyloxy)phenyl]methyl}-1H-pyrazolo[3,4-b]pyridine-5-carboxamide], for which the IC50 in assay [1] is 1 to 3.16 nM. With `CCn1ncc2c(N[C@H]3CC[C@H](C(N)=O)CC3)c(C(=O)NCc3ccc(C)c(C)c3)cnc21` [Example 9, 4-{[trans-4-(aminocarbonyl)cyclohexyl]amino}-N-[(3,4-dimethylphenyl)methyl]-1-ethyl-1H-pyrazolo[3,4-b]pyridine-5-carboxamide], the IC50 in assay [1] was 158 to 200 nM. The same measure, in the same setting: then `CCn1ncc2c(N[C@H]3CC[C@@H](C(N)=O)CC3)c(C(=O)NCc3ccc(C)c(C)c3)cnc21` [Example 8, 4-{[cis-4-(aminocarbonyl)cyclohexyl]amino}-N-[(3,4-dimethylphenyl)methyl]-1-ethyl-1H-pyrazolo[3,4-b]pyridine-5-carboxamide], with 1 to 3.16 nM. Same read-out and setting: then `CCn1ncc2c(N[C@H]3CC[C@@H](C(N)=O)CC3)c(C(=O)NCc3ccc(OC)cc3)cnc21` [Example 47, 4-{[cis-4-(aminocarbonyl)cyclohexyl]amino}-1-ethyl-N-{[4-(methyloxy)phenyl]methyl}-1H-pyrazolo[3,4-b]pyridine-5-carboxamide], with 1.26 to 5.01 nM. As to `CC[C@@H]1/C=C(\C)C[C@H](C)C[C@H](OC)[C@H]2O[C@@](O)(C(=O)C(=O)N3CCCC[C@H]3C(=O)O[C@H](/C(C)=C/[C@@H]3CC[C@H](Cl)[C@H](OC)C3)[C@H](C)[C@@H](O)CC1=O)[C@H](C)C[C@@H]2OC` [pimecrolimus, reference compound], the “inhibition of the summed scores” value in assay [2] was “about 29%”.

For the compound `CCn1ncc2c(N[C@@H]3CCN(C(N)=O)C3)c(C(=O)NCc3ccc(C)c(C)c3)cnc21` [Example 72, 4-{[(3R)-1-(aminocarbonyl)-3-pyrrolidinyl]amino}-N-[(3,4-dimethylphenyl)methyl]-1-ethyl-1H-pyrazolo[3,4-b]pyridine-5-carboxamide], the IC50 in assay [1] was 31.6 to 100 nM. On the same count and under the same terms, then `CCn1ncc2c(N[C@H]3CC[C@@H](C(N)=O)CC3)c(C(=O)NCc3ccc(C)cc3C)cnc21` [Example 45, 4-{[cis-4-(aminocarbonyl)cyclohexyl]amino}-N-[(2,4-dimethylphenyl)methyl]-1-ethyl-1H-pyrazolo[3,4-b]pyridine-5-carboxamide], with 1.26 to 5.01 nM. Still for that read-out and setting: then `CCn1ncc2c(N[C@H]3CC[C@H](C(N)=O)CC3)c(C(=O)NCc3ccc(C)cc3C)cnc21` [Example 46, 4-{[trans-4-(aminocarbonyl)cyclohexyl]amino}-N-[(2,4-dimethylphenyl)methyl]-1-ethyl-1H-pyrazolo[3,4-b]pyridine-5-carboxamide], with 158 to 200 nM; and `CCn1ncc2c(N[C@H]3CCN(C(N)=O)C3)c(C(=O)NCc3ccc(C)cc3C)cnc21` [Example 69, 4-{[(3S)-1-(aminocarbonyl)-3-pyrrolidinyl]amino}-N-[(2,4-dimethylphenyl)methyl]-1-ethyl-1H-pyrazolo[3,4-b]pyridine-5-carboxamide], with approximately 10 nM.

For the compound `CCn1ncc2c(NC3CCC(C(N)=O)CC3)c(C(=O)NCc3ccc(C)c(C)c3)cnc21` (centres unmarked) [Example 4, 4-{[4-(aminocarbonyl)cyclohexyl]amino}-N-[(3,4-dimethylphenyl)methyl]-1-ethyl-1H-pyrazolo[3,4-b]pyridine-5-carboxamide], the IC50 in assay [1] was 1 to 3.16 nM. The same measure, in the same setting: as for `CCn1ncc2c(N[C@H]3CCN(C(N)=O)C3)c(C(=O)NCc3ccc(C)c(C)c3)cnc21` [Example 70, 4-{[(3S)-1-(aminocarbonyl)-3-pyrrolidinyl]amino}-N-[(3,4-dimethylphenyl)methyl]-1-ethyl-1H-pyrazolo[3,4-b]pyridine-5-carboxamide], the figure is approximately 10 nM; as for `CCn1ncc2c(N[C@@H]3CCN(C(N)=O)C3)c(C(=O)NCc3ccc(C)cc3C)cnc21` [Example 71, 4-{[(3R)-1-(aminocarbonyl)-3-pyrrolidinyl]amino}-N-[(2,4-dimethylphenyl)methyl]-1-ethyl-1H-pyrazolo[3,4-b]pyridine-5-carboxamide], 31.6 to 100 nM.

For the compound `CCn1ncc2c(NC3CCC(C(N)=O)CC3)c(C(=O)NCc3ccc(C)cc3C)cnc21` (centres unmarked) [Example 5, 4-{[4-(aminocarbonyl)cyclohexyl]amino}-N-[(2,4-dimethylphenyl)methyl]-1-ethyl-1H-pyrazolo[3,4-b]pyridine-5-carboxamide], the IC50 in assay [1] is 1 to 3.16 nM.
